Among the test systems are RPMI-8226 leukemia; KM12 colon; RXF 393 renal; SF-295 CNS; COLO 205 colon; U251 CNS; UO-31 renal; 786-0 renal; SNB-19 CNS; BT-549 breast.
Holding throughout (assay): NCI anticancer screen, dose series, 48 h

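Growth conditions: 96-well plates. Treatment: test compound, 48 hours, 5 concentrations. Analysis: linear interpolation between bracketing concentrations; unreached endpoints set to highest concentration. GI50 = concentration required for 50% inhibition of growth. Definition used: TGI = concentration required for complete inhibition of growth.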

For the molecule `O=C(/C(=C/c1ccccc1)c1ccccc1)N1c2ccccc2CC1c1c[nH]c2ccccc12` (stereo not drawn), the TGI in the experiment with RPMI-8226 leukemia is over 100 µM; with KM12 colon, over 100 µM; in the experiment with RXF 393 renal, over 100 µM; in the experiment with SF-295 CNS it was over 100 µM; in the experiment with COLO 205 colon, 24.7 µM; with U251 CNS it was over 100 µM. In addition, the TGI in the experiment with UO-31 renal, in the experiment with 786-0 renal and in the experiment with SNB-19 CNS was over 100 µM in each case.
Turning to `O=S(=O)(O)ONC1=NCCN1`, the GI50 in the experiment with RPMI-8226 leukemia was 46.1 µM; in the experiment on KM12 colon, over 100 µM; in the experiment with RXF 393 renal, 66.7 µM; in the experiment on SF-295 CNS, over 100 µM; in the experiment on COLO 205 colon, over 100 µM; in the experiment with U251 CNS it was over 100 µM. In addition, the GI50 in the experiment on UO-31 renal was 29.1 µM; in the experiment on 786-0 renal, 90.6 µM; with SNB-19 CNS it was over 100 µM. Further, the TGI in the experiment on RPMI-8226 leukemia, in the experiment with KM12 colon, in the experiment with RXF 393 renal, with SF-295 CNS, in the experiment on COLO 205 colon and in the experiment with U251 CNS was over 100 µM throughout. The TGI in the experiment with UO-31 renal, in the experiment on 786-0 renal and with SNB-19 CNS was over 100 µM throughout.
On to `COc1ccc2c(c1)OCCC1=C2SCC2(C)CCN=C12` (stereo not drawn), for which the TGI with RPMI-8226 leukemia, in the experiment on KM12 colon, in the experiment on RXF 393 renal, in the experiment on SF-295 CNS, in the experiment with COLO 205 colon and in the experiment on U251 CNS was over 100 µM in each case. The TGI in the experiment with 786-0 renal and in the experiment with SNB-19 CNS was over 100 µM each time.
Regarding `C#CCN(C)C(=O)N(CC#C)N=O`, the TGI in the experiment with RPMI-8226 leukemia, in the experiment with KM12 colon, with RXF 393 renal, in the experiment on SF-295 CNS, in the experiment on COLO 205 colon and in the experiment with U251 CNS was over 100 µM throughout. Further, the TGI with UO-31 renal, in the experiment with 786-0 renal and in the experiment on SNB-19 CNS was over 100 µM each time.
`CN(C)CCNc1nc(-c2cccs2)cc(-c2cccs2)n1`: the TGI in the experiment with KM12 colon was 28.5 µM; in the experiment with RXF 393 renal, 28.6 µM; in the experiment with SF-295 CNS, 28.2 µM; in the experiment on COLO 205 colon, 27.9 µM; in the experiment with U251 CNS, 24.4 µM; with UO-31 renal, 23.6 µM. Further, the TGI in the experiment with 786-0 renal stood at 30.4 µM.
As to `C#Cc1cc2c(N)c(C(=O)c3cc(OC)c(OC)c(OC)c3)[nH]c2cc1OC`, the GI50 with RPMI-8226 leukemia was 1.84 µM; in the experiment on KM12 colon, 0.412 µM; in the experiment with COLO 205 colon, 0.38 µM; in the experiment on U251 CNS, 0.691 µM; with UO-31 renal, 0.722 µM; in the experiment with 786-0 renal it was 0.542 µM. Further, in the experiment with SNB-19 CNS, the GI50 is 0.73 µM. In addition, the TGI with RPMI-8226 leukemia was 20 µM; in the experiment with KM12 colon it was over 100 µM; in the experiment with COLO 205 colon, 2.27 µM; with U251 CNS, over 100 µM; in the experiment with UO-31 renal, 56.1 µM; with 786-0 renal, over 100 µM. In the experiment on SNB-19 CNS, this molecule yielded a TGI of over 100 µM.
`NS(=O)(=O)c1ccc(NC(=O)COC(=O)c2cccc3c(=O)c4ccccc4[nH]c23)cc1`: the TGI in the experiment with RPMI-8226 leukemia was over 100 µM; in the experiment with KM12 colon it was over 85.5 µM; with RXF 393 renal, 42.3 µM; in the experiment on SF-295 CNS, 52.6 µM; with COLO 205 colon, over 100 µM; in the experiment with U251 CNS it was 28.1 µM. The TGI in the experiment with UO-31 renal was over 87 µM; in the experiment on 786-0 renal, 45.3 µM; in the experiment with SNB-19 CNS, 45.2 µM.
Turning to `COc1ccc(C2=NOP(c3ccccc3)(c3ccccc3)(c3ccccc3)C2)cc1`, the TGI was 33.5 µM in the experiment with RPMI-8226 leukemia; over 100 µM with KM12 colon; 97.4 µM in the experiment with RXF 393 renal; 61.2 µM in the experiment on SF-295 CNS; 23.5 µM in the experiment with COLO 205 colon; over 93.1 µM with U251 CNS. Also, the figures for the TGI in the experiment with UO-31 renal, in the experiment on 786-0 renal and in the experiment on SNB-19 CNS were over 100 µM, over 53.4 µM and over 100 µM, respectively.
Turning to `COc1ccc2nc3cccc(C(=O)NCCN(C)C)c3nc2c1`, the TGI in the experiment on RPMI-8226 leukemia was 27.6 µM; in the experiment with KM12 colon it was 9.82 µM; with RXF 393 renal, 3.21 µM; in the experiment with SF-295 CNS, over 22.8 µM; in the experiment with COLO 205 colon, over 24.3 µM; in the experiment with U251 CNS it was 11.3 µM. Besides, the values for the TGI with UO-31 renal, in the experiment with 786-0 renal and with SNB-19 CNS were over 100 µM, over 22.2 µM and 19.6 µM, respectively.
For `C[n+]1c(N)n(C(=O)OCc2ccccc2)c(=O)c2c1ncn2C(=O)OCc1ccccc1`, the TGI is over 100 µM with RPMI-8226 leukemia; over 100 µM in the experiment with KM12 colon; over 100 µM in the experiment on SF-295 CNS; over 100 µM with COLO 205 colon; over 100 µM in the experiment on U251 CNS; 62.9 µM in the experiment with UO-31 renal. The TGI with 786-0 renal and in the experiment with SNB-19 CNS was over 100 µM each time.
As to `CC1=C(C(=O)Nc2ccccc2)C(c2ccc(C(C)C)cc2)C(C(=O)Nc2ccccc2)=C(C)N1`, the TGI was 29.8 µM with RPMI-8226 leukemia; 77.8 µM in the experiment with KM12 colon; 27.6 µM in the experiment on RXF 393 renal; over 100 µM in the experiment on SF-295 CNS; 28.6 µM in the experiment with COLO 205 colon; 45.1 µM in the experiment on U251 CNS. In addition, the TGI in the experiment on UO-31 renal is 46.6 µM; with 786-0 renal, 30.2 µM; in the experiment with SNB-19 CNS, over 100 µM.
`Cc1ccc(NC(=O)CCC(=O)C(C#N)c2ccccc2)cc1C` (stereo not drawn): the TGI in the experiment on RPMI-8226 leukemia, in the experiment with KM12 colon, in the experiment with SF-295 CNS, with COLO 205 colon, in the experiment on U251 CNS and in the experiment with UO-31 renal was over 100 µM throughout. Further, the TGI in the experiment with 786-0 renal and in the experiment with SNB-19 CNS was over 100 µM throughout.
As for `O=C1c2ccn(CCCCN3CCC(O)CC3)c2C(=O)c2c1c(O)c1ccccc1c2O`, the GI50 in the experiment with KM12 colon is 1.96 µM; in the experiment on BT-549 breast it was 13.2 µM; in the experiment with SF-295 CNS, 3.25 µM; with COLO 205 colon, 37.2 µM; in the experiment on U251 CNS, 15.4 µM; with UO-31 renal, 2.4 µM. Besides, the GI50 in the experiment with 786-0 renal was 13.1 µM; with SNB-19 CNS it was over 52.2 µM. Moreover, the TGI was 5.2 µM in the experiment with KM12 colon; 51.6 µM in the experiment on BT-549 breast; 9.69 µM with SF-295 CNS; over 66.2 µM in the experiment with COLO 205 colon; 43.4 µM in the experiment on U251 CNS; 11.9 µM in the experiment on UO-31 renal. For the same molecule, the figures for the TGI in the experiment with 786-0 renal and with SNB-19 CNS were 31.1 µM and over 86.9 µM, respectively.

These data come from PubChem BioAssay (NCI).
